Reference: article PMC10257182, “Discovery of senolytics using machine learning” (Nature Communications, 2023)
“And” between values parts separate entries of the source, which are not always exact repeats. Equal values may be shown once. Read-outs that look alike come from different tables or passages of the source.

Key:
Type in all cases: cell-based, human
[1] = test system: senescent IMR90 ER:RAS cells (4-OHT-induced); test: Nuclei count (Hoechst, high content imaging) senolytic assay, oncogene-induced senescence (OIS) model, senescent cells; conditions: for IC50: OIS model, 4-OHT-induced IMR90 ER:RAS, nuclei count, 72 h; for dose showing the clearest / optimal senolytic effect: Hoechst nuclei count, marginal effect on normal cells; for % Cell Survival: senescence
How it was run: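 IMR90 ER:RAS (p14), ±4-OHT 100 nM; cpd 10 nM–10 μM, 10-pt […], 72 h, n=3. Fix formaldehyde, Triton X-100, Hoechst 2 μg/ml final. Readout: imaged nuclei count vs untreated; ouabain positive control.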

[2] = test system: A549 cells treated with 100 μM etoposide; test: Cell survival assay using crystal violet staining, TIS, senescent cells; conditions: Etoposide-treated (senescent) cells; Control DMSO = 100; single replicates (SUP FIG 9E)
Description: Equal numbers of control and senescent cells were plated at high density on multiwell plates just before senolytic treatment addition. After treatment, cells were fixed on 0.5% glutaraldehyde (Sigma) and then dried at RT overnight. Then, wells were stained with crystal violet solution for 3 h, washed and dried. Once they were completely dry, the plates were scanned for records. Quantification was performed extracting the staining with 1% acetic acid and measuring the final solution by absorbance at 595 nm. […]
cells per condition is indicated. (d) Cell survival assay measuring the senolytic effect in lung cancer senescent cells. The panels show a representative crystal violet staining of tissue culture dishes of confluent A549 cells treated with 100 μM etoposide and control A549 cells, all treated with 10 nM oleandrin, ouabain and periplocin, and DMSO as vehicle control for 72 hours as indicated. (e) Graph representing the cell survival by quantification of the crystal violet staining of the experiment described in (d), as described in Methods. Data represented as individual datapoints, and bars and error bars representing the mean ± SEM of 14 independent experiments. Statistical analysis was performed using a one-way ANOVA (Tukey’s test) for multiple comparisons. […]
Scale bars represent 100 μm. ns = not significant, * = p < 0.05, ** = p < 0.01, *** = p < 0.001, **** = p < 0.0001. Source data are provided as a Source Data file.

[3] = test system: Na+/K+ ATPase pump (intracellular K+) in IMR90 cells at passage 27; test: Intracellular K+ determination with Asante staining, replicative senescence; conditions: Replicative Senescence cells; for Asante Mean intensity: individual replicate values; for Asante Mean intensity, group mean (Test details, Mean 2): mean of n=6
Description: Cells were cultured for control and senescent phenotype and then treated with the senolytics oleandrin, ouabain and periplocin at 10 nM for 72 h. Asante (Asante Potassium Green-2 AM, abcam ab142806) was added to the culture 30 min before fixation, following manufacturer instructions. DAPI staining was done before image acquisition on Nikon TI2 microscope (20x). Image analysis was performed using ImageJ 1.53k for setting intensity threshold and measuring mean intensity.

[4] = Homo sapiens, IMR-90, 72 h, Senescent, log (dose) [M] -5, 72 h, mean n=3 (Fig 3C), read-out: Mean % Cell Survival
[5] = Homo sapiens, IMR-90, 72 h, Senescent, log (dose) [M] -5.33, 72 h, mean n=3 (Fig 3C), read-out: Mean % Cell Survival
[6] = Homo sapiens, IMR-90, 72 h, Senescent, log (dose) [M] -5.66, 72 h, mean n=3 (Fig 3C), read-out: Mean % Cell Survival
[7] = Homo sapiens, IMR-90, 72 h, Senescent, log (dose) [M] -6, 72 h, mean n=3 (Fig 3C), read-out: Mean % Cell Survival
[8] = Homo sapiens, IMR-90, 72 h, Senescent, log (dose) [M] -6.33, 72 h, mean n=3 (Fig 3C), read-out: Mean % Cell Survival
[9] = Homo sapiens, IMR-90, 72 h, Senescent, log (dose) [M] -6.66, 72 h, mean n=3 (Fig 3C), read-out: Mean % Cell Survival
[10] = Homo sapiens, IMR-90, 72 h, Senescent, log (dose) [M] -7, 72 h, mean n=3 (Fig 3C), read-out: Mean % Cell Survival
[11] = Homo sapiens, IMR-90, 72 h, Senescent, log (dose) [M] -7.33, 72 h, mean n=3 (Fig 3C), read-out: Mean % Cell Survival
[12] = Homo sapiens, IMR-90, 72 h, Senescent, log (dose) [M] -7.66, 72 h, mean n=3 (Fig 3C), read-out: Mean % Cell Survival
[13] = Homo sapiens, IMR-90, 72 h, Senescent, log (dose) [M] -8, 72 h, mean n=3 (Fig 3C), read-out: Mean % Cell Survival

## C[C@@H]1O[C@@H](O[C@H]2C[C@@H](O)[C@]3(CO)[C@H]4[C@H](O)C[C@]5(C)[C@@H](C6=CC(=O)OC6)CC[C@]5(O)[C@@H]4CC[C@]3(O)C2)[C@H](O)[C@H](O)[C@H]1O [Ouabain, ouabain, reference compound]
[1]; [4]
  viability at 10 µM: 2.57%
[1]; [5]
  viability at 4.677 µM: 2.79%
[1]; [6]
  viability at 2.188 µM: 3.51%
[1]; [7]
  viability at 1 µM: 4.22%
[1]; [8]
  viability at 0.4677 µM: 4.07%
[1]; [9]
  viability at 0.2188 µM: 2.69%
[1]; [10]
  viability at 0.1 µM: 4.75%
[1]; [11]
  viability at 0.04677 µM: 11.8%
[1]; [12]
  viability at 0.02188 µM: 73%
[1]; [13]
  viability at 0.01 µM: 89.4%
[1]; Homo sapiens, IMR-90, senescence cells, log (dose) [M] -5, read-out: % Cell Survival
  viability at 10 µM: 2.5%
[1]; Homo sapiens, IMR-90, senescence cells, log (dose) [M] -5.33, read-out: % Cell Survival
  viability at 4.677 µM: 2.14%
[1]; Homo sapiens, IMR-90, senescence cells, log (dose) [M] -5.66, read-out: % Cell Survival
  viability at 2.188 µM: 4.05%
[1]; Homo sapiens, IMR-90, senescence cells, log (dose) [M] -6, read-out: % Cell Survival
  viability at 1 µM: 4.29%
[1]; Homo sapiens, IMR-90, senescence cells, log (dose) [M] -6.33, read-out: % Cell Survival
  viability at 0.4677 µM: 5.48%
[1]; Homo sapiens, IMR-90, senescence cells, log (dose) [M] -6.66, read-out: % Cell Survival
  viability at 0.2188 µM: 3.1%
[1]; Homo sapiens, IMR-90, senescence cells, log (dose) [M] -7, read-out: % Cell Survival
  viability at 0.1 µM: 4.88%
[1]; Homo sapiens, IMR-90, senescence cells, log (dose) [M] -7.33, read-out: % Cell Survival
  viability at 0.04677 µM: 11.2%
[1]; Homo sapiens, IMR-90, senescence cells, log (dose) [M] -7.66, read-out: % Cell Survival
  viability at 0.02188 µM: 70.8%
[1]; Homo sapiens, IMR-90, senescence cells, log (dose) [M] -8, read-out: % Cell Survival
  viability at 0.01 µM: 86.1%
[1]; Homo sapiens, IMR-90
  IC50: 28 nM
[1]; OIS IMR90 ER:RAS
  dose showing the clearest / optimal senolytic effect: 46.4 nM
[2]
  % Cell Survival: 83.2% and 99.9% and 99.3% and 62.7% and 92.6% and 102.5% and 88.1% and 123.1% and 123.9% and 68.2% and 105.6% and 95.4% and 114.5% and 91.7%
[3]
  Asante Mean intensity: 151.8 and 154.5 and 152.7 and 153 and 150.8 and 153.1
  Asante Mean intensity, group mean (Test details, Mean 2): 152.7

## CO[C@H]1C[C@H](O[C@H]2CC[C@]3(C)[C@H]4CC[C@]5(C)[C@@H](C6=CC(=O)OC6)CC[C@]5(O)[C@@H]4CC[C@]3(O)C2)O[C@H](C)[C@H]1O[C@@H]1O[C@H](CO)[C@@H](O)[C@H](O)[C@H]1O [Periplocin, periplocin]
[1]; OIS IMR90 ER:RAS
  dose showing the clearest / optimal senolytic effect: 46.4 nM
[1]
  IC50: 24 nM
[1]; Senescent, log (dose) [M] -5, 72 h, mean n=3 (Fig 3C)
  Mean % Cell Survival: 3.183%
[1]; Senescent, log (dose) [M] -5.33, 72 h, mean n=3 (Fig 3C)
  Mean % Cell Survival: 6.126%
[1]; Senescent, log (dose) [M] -5.66, 72 h, mean n=3 (Fig 3C)
  Mean % Cell Survival: 4.43%
[1]; Senescent, log (dose) [M] -6, 72 h, mean n=3 (Fig 3C)
  Mean % Cell Survival: 4.805%
[1]; Senescent, log (dose) [M] -6.33, 72 h, mean n=3 (Fig 3C)
  Mean % Cell Survival: 5.142%
[1]; Senescent, log (dose) [M] -6.66, 72 h, mean n=3 (Fig 3C)
  Mean % Cell Survival: 5.675%
[1]; Senescent, log (dose) [M] -7, 72 h, mean n=3 (Fig 3C)
  Mean % Cell Survival: 6.834%
[1]; Senescent, log (dose) [M] -7.33, 72 h, mean n=3 (Fig 3C)
  Mean % Cell Survival: 16.5597%
[1]; Senescent, log (dose) [M] -7.66, 72 h, mean n=3 (Fig 3C)
  Mean % Cell Survival: 54.5059%
[1]; Senescent, log (dose) [M] -8, 72 h, mean n=3 (Fig 3C)
  Mean % Cell Survival: 96.9401%
[1]; experimental screen, OIS IMR90 ER:RAS
  senolytic activity (in words): clear senolytic action
[1]; ratio between the IC50 of control cells and the IC50 of senescent cells, OIS IMR90 ER:RAS
  senolytic index (SI): 12.3
[1]; log (dose) [M] -5, individual replicates (Fig 3D)
  % Cell Survival: 3.074% and 3.321% and 3.154%
[1]; log (dose) [M] -5.33, individual replicates (Fig 3D)
  % Cell Survival: 5.0494% and 9.706% and 3.6215%
[1]; log (dose) [M] -5.66, individual replicates (Fig 3D)
  % Cell Survival: 4.72% and 4.5977% and 3.972%
[1]; log (dose) [M] -6, individual replicates (Fig 3D)
  % Cell Survival: 4.061% and 4.981% and 5.374%
[1]; log (dose) [M] -6.33, individual replicates (Fig 3D)
  % Cell Survival: 6.147% and 3.321% and 5.958%
[1]; log (dose) [M] -6.66, individual replicates (Fig 3D)
  % Cell Survival: 4.501% and 7.152% and 5.374%
[1]; log (dose) [M] -7, individual replicates (Fig 3D)
  % Cell Survival: 5.818% and 7.791% and 6.893%
[1]; log (dose) [M] -7.33, individual replicates (Fig 3D)
  % Cell Survival: 17.8924% and 15.198% and 16.5888%
[1]; log (dose) [M] -7.66, individual replicates (Fig 3D)
  % Cell Survival: 42.1515% and 64.2401% and 57.1262%
[1]; log (dose) [M] -8, individual replicates (Fig 3D)
  % Cell Survival: 93.8529% and 97.318% and 99.6495%
[2]
  % Cell Survival: 78.5% and 85.2% and 87.1% and 66.7% and 80.4% and 88.8% and 86.5% and 120% and 114.9% and 68.8% and 88.3% and 87.7% and 111.9% and 81.2%
[3]
  Asante Mean intensity: 152.4 and 152.1 and 153.1 and 152.9 and 152.7
  Asante Mean intensity, group mean (Test details, Mean 2): 152.6

## O=c1oc2c(O)c(O)cc3c(=O)oc4c(O)c(O)cc1c4c23 [Ellagic acid, ellagic acid]
[1]; [4]
  viability at 10 µM: 109%
[1]; [5]
  viability at 4.677 µM: 104%
[1]; [6]
  viability at 2.188 µM: 113%
[1]; [7]
  viability at 1 µM: 110%
[1]; [8]
  viability at 0.4677 µM: 123%
[1]; [9]
  viability at 0.2188 µM: 122%
[1]; [10]
  viability at 0.1 µM: 117%
[1]; [11]
  viability at 0.04677 µM: 122%
[1]; [12]
  viability at 0.02188 µM: 114%
[1]; [13]
  viability at 0.01 µM: 113%
[1]; Homo sapiens, IMR-90, Senescent cells, log (dose) [M] -5.66, individual replicates, SUP FIG 4C, read-out: % Cell Survival
  viability at 2.188 µM: 108%
[1]; Homo sapiens, IMR-90, Senescent cells, log (dose) [M] -6, individual replicates, SUP FIG 4C, read-out: % Cell Survival
  viability at 1 µM: 117%
